Results as given in PubChem BioAssay (NCI).
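These data come from cells grown in 96-well plates and exposed to compound for 48 hours at five concentrations. Abbreviation: GI50, concentration required for 50% inhibition of growth. At the TGI there is no net growth.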

Experiments:
Assay in all cases: inhibition of tumour cell growth, NCI panel, 48 h
786-0 renal = test system: 786-0 renal
MDA-MB-231 breast = test system: MDA-MB-231 breast
NCI-H226 lung = test system: NCI-H226 lung
SF-268 CNS = test system: SF-268 CNS
T-47D breast = test system: T-47D breast
PC-3 prostate = test system: PC-3 prostate
RPMI-8226 leukemia = test system: RPMI-8226 leukemia
MCF7 breast = test system: MCF7 breast
CAKI-1 renal = test system: CAKI-1 renal
SR leukemia = test system: SR leukemia

## CCCCCCCCCCCCCCCC(=O)N[C@H](/C=C/[C@H](O)CCCCCCCCCCCCC)CO
786-0 renal
  GI50: > 100 µM
  TGI: > 100 µM
MDA-MB-231 breast
  GI50: > 100 µM
  TGI: > 100 µM
NCI-H226 lung
  GI50: > 100 µM
  TGI: > 100 µM
SF-268 CNS
  GI50: > 100 µM
  TGI: > 100 µM
T-47D breast
  GI50: > 100 µM
  TGI: > 100 µM
PC-3 prostate
  GI50: > 100 µM
  TGI: > 100 µM
RPMI-8226 leukemia
  GI50: 0.884 µM
  TGI: > 100 µM
MCF7 breast
  GI50: > 100 µM
  TGI: > 100 µM

## N.N.O=P([O-])([O-])CN(CCN(CP(=O)([O-])[O-])CP(=O)([O-])[O-])CP(=O)([O-])[O-].[Pt+2]
786-0 renal
  GI50: > 100 µM
  TGI: > 100 µM
NCI-H226 lung
  GI50: > 100 µM
  TGI: > 100 µM
SF-268 CNS
  GI50: > 100 µM
  TGI: > 100 µM
CAKI-1 renal
  GI50: > 100 µM
  TGI: > 100 µM
RPMI-8226 leukemia
  GI50: > 100 µM
  TGI: > 100 µM

## CCN(CC)CCOc1ccc(/C=C2\C[C@H]3[C@H]4CC=C5C[C@@H](O)CC[C@]5(C)[C@H]4CC[C@]3(C)[C@H]2O)cc1OC
786-0 renal
  GI50: 5.09 µM
  TGI: 16.1 µM
MDA-MB-231 breast
  GI50: 6.94 µM
  TGI: 14.2 µM
NCI-H226 lung
  GI50: 7.71 µM
  TGI: 16 µM
SF-268 CNS
  GI50: 14.9 µM
  TGI: 47 µM
T-47D breast
  GI50: 24.5 µM
  TGI: > 50 µM
CAKI-1 renal
  GI50: 7.14 µM
  TGI: 15.9 µM
MCF7 breast
  GI50: 12.4 µM
  TGI: > 50 µM

## Cn1cc(-c2csc(-c3cn(CCCCN4CCCCC4)c4ccc(F)cc34)n2)c2cccnc21
786-0 renal
  GI50: 1.65 µM
  TGI: 3.02 µM
NCI-H226 lung
  GI50: 1.68 µM
  TGI: 3.38 µM
SF-268 CNS
  GI50: 1.68 µM
  TGI: 3.32 µM
T-47D breast
  GI50: 15.7 µM
  TGI: 41.4 µM

## Cn1c2ccccc2c(=O)c2c(O)cc3c(c21)CC(C1(C)CO1)O3 (configuration not stated)
786-0 renal
  TGI: 5.06 µM
MDA-MB-231 breast
  TGI: 5.85 µM
NCI-H226 lung
  TGI: 32 µM
SF-268 CNS
  TGI: 4.11 µM
T-47D breast
  TGI: 24.9 µM
CAKI-1 renal
  TGI: 17.9 µM
PC-3 prostate
  TGI: 14.2 µM
RPMI-8226 leukemia
  TGI: 22.6 µM
MCF7 breast
  TGI: 1.89 µM

## O=C(NNc1ccc(F)cc1)C1CCC(CNS(=O)(=O)c2ccc(Cl)c(Cl)c2)CC1 (configuration not stated)
786-0 renal
  GI50: 17.9 µM
  TGI: > 50 µM
MDA-MB-231 breast
  GI50: 3.17 µM
  TGI: 25.4 µM
SR leukemia
  GI50: 17 µM
  TGI: > 50 µM
NCI-H226 lung
  GI50: 15.6 µM
  TGI: > 50 µM
SF-268 CNS
  GI50: 4.76 µM
  TGI: > 50 µM
CAKI-1 renal
  GI50: 2.87 µM
  TGI: 28.1 µM
PC-3 prostate
  GI50: 6.3 µM
  TGI: 39.5 µM
RPMI-8226 leukemia
  GI50: 3.36 µM
  TGI: 24.2 µM
MCF7 breast
  GI50: 7.73 µM
  TGI: > 50 µM

## CSc1ccc(OCC2OC2O)cc1 (configuration not stated)
786-0 renal
  TGI: > 100 µM
SR leukemia
  TGI: > 100 µM
NCI-H226 lung
  TGI: > 100 µM
CAKI-1 renal
  TGI: > 76.6 µM
RPMI-8226 leukemia
  TGI: 99.5 µM

## NCCCCCCCCCCCn1c2c(c3ccccc3c1=O)C(=O)c1ccccc1-2
786-0 renal
  GI50: 19.9 µM
  TGI: 46.9 µM
MDA-MB-231 breast
  GI50: 3.75 µM
  TGI: 15.2 µM
NCI-H226 lung
  GI50: 25.2 µM
  TGI: 54.3 µM
SF-268 CNS
  GI50: 6.05 µM
  TGI: 49.1 µM
T-47D breast
  GI50: 4.42 µM
  TGI: 26.6 µM
CAKI-1 renal
  GI50: 8.62 µM
  TGI: 63.5 µM
PC-3 prostate
  GI50: 2.26 µM
  TGI: 7.12 µM
MCF7 breast
  GI50: 8.63 µM
  TGI: 37.9 µM

## Cc1cc(=O)n2c3c(c4c(cc13)c(CO)cc(=O)n4C)OC2
786-0 renal
  TGI: > 100 µM
NCI-H226 lung
  TGI: 25.8 µM
SF-268 CNS
  TGI: 52.6 µM
CAKI-1 renal
  TGI: > 100 µM
RPMI-8226 leukemia
  TGI: > 100 µM

## CC(=O)[CH-]C(=O)c1ccccc1.CC(=O)[CH-]C(=O)c1ccccc1.CC[C@H](/C=C/C(C)[C@H]1CCC2[C@@H]3CC=C4C[C@@H]([O-])CC[C@]4(C)C3CC[C@@]21C)C(C)C.CC[O-].[Ti+4] (some centres not stated)
786-0 renal
  GI50: > 100 µM
  TGI: > 100 µM
NCI-H226 lung
  GI50: > 100 µM
  TGI: > 100 µM
SF-268 CNS
  GI50: > 100 µM
  TGI: > 100 µM
CAKI-1 renal
  GI50: > 100 µM
  TGI: > 100 µM
RPMI-8226 leukemia
  GI50: > 100 µM
  TGI: > 100 µM

## Cc1cc(Cl)ccc1NC(=O)CCCC(=O)C1CCC/C1=N\NC(=O)CC#N (configuration not stated)
786-0 renal
  TGI: > 100 µM
NCI-H226 lung
  TGI: > 100 µM
SF-268 CNS
  TGI: > 100 µM
CAKI-1 renal
  TGI: > 100 µM
RPMI-8226 leukemia
  TGI: > 100 µM

## C1COCCOCCOCCOCCOCCO1.[Cl][Sn]([Cl])([c]1ccccc1)[c]1ccccc1
786-0 renal
  GI50: 2.41 µM
  TGI: 5.51 µM
NCI-H226 lung
  GI50: 11.5 µM
  TGI: 27.9 µM
SF-268 CNS
  GI50: 2.8 µM
  TGI: 8.65 µM
CAKI-1 renal
  GI50: 0.478 µM
  TGI: 1.75 µM
RPMI-8226 leukemia
  GI50: 2.02 µM
  TGI: 6.15 µM

## O=C(N/C(=C\c1ccc(/C=C(\NC(=O)c2ccccc2)c2nc3cc(Cl)ccc3[nH]2)cc1)c1nc2cc(Cl)ccc2[nH]1)c1ccccc1
786-0 renal
  TGI: > 100 µM
NCI-H226 lung
  TGI: > 100 µM
SF-268 CNS
  TGI: 73.5 µM
CAKI-1 renal
  TGI: > 100 µM
RPMI-8226 leukemia
  TGI: 25.4 µM

## COc1cccc(NC(=O)C(C)(C)C)c1SSc1c(NC(=O)C(C)(C)C)cccc1OC
786-0 renal
  TGI: 53.1 µM
SR leukemia
  TGI: 55.3 µM
NCI-H226 lung
  TGI: > 93.6 µM
SF-268 CNS
  TGI: 32.7 µM
CAKI-1 renal
  TGI: > 60.3 µM
RPMI-8226 leukemia
  TGI: 51 µM
